Patent US7465817B2, “Inositolized phospholipids” (Charite-Universitats Medizin Berlin, priority 2002, dated 2008)
Entries after “also recorded” stand apart in the source; their conditions may differ. Read-outs that look alike come from different tables or passages of the source.

How the values were obtained:
HaCaT cells [1] = assay: cell matrix adhesion to ECM proteins (collagen IV, fibronectin, laminin), crystal violet; type: cell-based, human; conditions: for cell adhesion to extracellular matrix components fibronectin, laminin and collagen IV: treatment for 2 h; for cell matrix adhesion after incubation (summary of advantages): HePC with delayed onset of action
Description: In order to study the effect of Glc-PAF, Ino-PAF and Glc-PC (as specified in Example 2) on cell matrix adhesion HaCaT cells were rested 15 min at 4° C. and allowed to adhere to different ECM proteins (collagen IV, fibronectin and laminin) for 90 min at 37° C. The proteins of the extracellular matrix (ECM) were loaded onto the plastic surface by overnight treatment at 4° C. After fixing and staining in crystal violet, coloring was measured at 570 nm. Per test were used 50,000 cells, and quadruple testing was performed.

[2] = low but antiproliferative concentrations; cited from earlier work
SCC-25 cells = assay: antiproliferative effect in squamous carcinoma cell line; type: cell-based; conditions: SCC-25 tumor cells
Description: (§1) The impact of glycosidation in the glycosidated phospholipid analogs was determined in serum-free cell cultures of human keratinocytes (HaCaT cells) and a squamous carcinoma cell line (SCC-25).
In SCC-25 cells the antiproliferative effects of the glycosidated phospholipid analogs is much stronger.

[3] = cited from earlier work
HaCaT cells [4] = assay: Viability determined by the LDH assay; type: cell-based; conditions: human
HaCaT cells [5] = assay: cell proliferation ELISA, based on the incorporation of BrdU (Roche); parameters: species or system human; conditions: for IC50: serum-free, text says μmolar range; for antiproliferative effect (in words): non cytotoxic concentrations
Description: as §1
Ino-PAF as obtained in Example 1, Glc-PC and Glc-PAF (synthesis according to Mickeleit, M. et al., Angew. Chem. Int. Ed. Engl. 34:2667-2669 (1995) and 37:351-353 (1998)), and HePC (Hexadecylphosphocholine; commercially available as Miltefosin) were tested in the cell proliferation ELISA, BrdU (col.), Roche in an amount of from 0.6 to 5 μM. Prior to the assay the cells were kept for 2 h in serum-free keratinocyte medium. Assays were performed using 10.000 cells per test, at least quadruple testing.

HaCaT cells [6] = assay: as above; conditions: Homo sapiens, Fischer et al. unpublished data, read-out: antiproliferative effect IC50
β1-Integrin = assay: β1 integrin surface expression and clustering, immunofluorescence; type: cell-based, human; conditions: HaCaT cells
Description: HaCaT cells were treated with Ino-PAF (obtained as described in Example 1) for 48 h. For the immunofluorescence measurement, cells were treated with 5 μM Ino-PAF. The antibody utilized for detection was directed against the β1-Integrin, which is a surface receptor conferring cell-matrix-adhesion. Immunofluorescence analysis was performed on a collagen IV matrix. 5×10^4 cells/well were left to adhere for 90 min and stained with K20-FITC (anti-β1) or Phalloidin-TRITC respectively.

protein kinase C (PKC) = conditions: cited from earlier work
HaCaT cells [7] = conditions: literature, Schoen et al. 1996; cited from earlier work

Molecule | cell adhesion to extracellular matrix components fibronectin, laminin and collagen IV (HaCaT cells [1]) | apoptosis [2] | antiproliferative effect (SCC-25 cells) | water solubility [3] | Viability (LD50) (HaCaT cells [4]) | IC50 (HaCaT cells [5]; Homo sapiens) [µM] | antiproliferative effect (in words) (HaCaT cells [5]) | IC50 (HaCaT cells [6]) [µM] | cell matrix adhesion after incubation (summary of advantages) (HaCaT cells [1]) | toxic effect LD50 (HaCaT cells [4]) [µM] | surface expression of integrins (β1-Integrin) | integrin clustering (β1-Integrin; 5 μM, 48 h) | increase of PKC activity (protein kinase C (PKC); HaCaT cells, non-toxic concentrations) | inhibition of PKC activity in vitro (protein kinase C (PKC); high, toxic concentrations) | IC50 (HaCaT cells [5]) [µM] | cell matrix adhesion (HaCaT cells [7])
CCCCCCCCCCCCCCCCCCOC[C@H](COP(=O)([O-])OCC[N+](C)(C)C)O[C@H]1O[C@H](CO)[C@@H](O)[C@H](O)[C@H]1O [Glc-PAF, 1-O-octadecyl-2-O-α-D-gluco-pyranosyl-sn-glycero-3-phosphocholine] | increases cell adhesion | cause apoptosis | sub-μmolar range | water-soluble | 9 | 5 | inhibited cell proliferation | – | – | – | – | – | – | – | – | –
CCCCCCCCCCCCCCCCCCOC[C@H](COP(=O)([O-])OCC[N+](C)(C)C)OCCO[C@@H]1[C@@H](O)[C@H](O)[C@@H](O)[C@H](O)[C@@H]1O [Ino-PAF, inositol-C2-PAF] | concentration-dependent increase; also recorded: increases cell adhesion | – | – | – | 15 | 1.8 | strong antiproliferative effects; also recorded: stronger antiproliferative effects than the therapeutically used HePC | 1.7 | increased | > 10 | not affected | induces integrin clustering | – | – | – | –
glyceroglucophosphocholine [Glc-PC] | – | – | – | water-soluble | 50 | – | strong antiproliferative effects; also recorded: inhibited cell proliferation | – | – | – | – | – | up to 70% | do not inhibit PKC activity | 9 | –
CCCCCCCCCCCCCCCCOP(=O)([O-])OCC[N+](C)(C)C [HePC, hexadecyl-phosphocholine] | – | – | – | – | – | – | – | – | increased | – | – | – | – | – | 4.5 | reduce cell matrix adhesion
